Our source for the IC50 and Ki values is ChEMBL document CHEMBL1909046, “DrugMatrix in vitro pharmacology data”.

For assay [1], the target named is T1, Alpha-1B adrenergic receptor (Rattus norvegicus, UniProt P15823).
T1 sequence (P15823 whole entry): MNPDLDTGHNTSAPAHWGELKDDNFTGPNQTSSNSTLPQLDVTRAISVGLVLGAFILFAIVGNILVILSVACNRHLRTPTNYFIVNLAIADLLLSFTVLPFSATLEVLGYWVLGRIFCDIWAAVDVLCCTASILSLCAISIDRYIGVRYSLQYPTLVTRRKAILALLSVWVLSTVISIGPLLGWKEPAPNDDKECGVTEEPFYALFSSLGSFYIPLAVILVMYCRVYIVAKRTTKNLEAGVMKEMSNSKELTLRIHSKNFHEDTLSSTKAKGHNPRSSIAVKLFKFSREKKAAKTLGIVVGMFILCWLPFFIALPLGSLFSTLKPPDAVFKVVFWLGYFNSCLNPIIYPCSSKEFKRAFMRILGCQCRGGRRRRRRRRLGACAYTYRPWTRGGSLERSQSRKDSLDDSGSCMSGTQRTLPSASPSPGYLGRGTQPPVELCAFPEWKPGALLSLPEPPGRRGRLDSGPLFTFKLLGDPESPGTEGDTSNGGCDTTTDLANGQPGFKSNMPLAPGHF
In words: DRUGMATRIX: Alpha-1B adrenergic receptor radioligand binding (ligand: prazosin). The class given is cell membranes, Wistar, Liver, Membrane. Particulars: Not Active = under 50% inhibition at 10 µM; for pIC50: read-out: IC50; for pKi: read-out: Ki.

A further assay has as its target Substance-P receptor (Homo sapiens, UniProt P25103). The class given is cell membranes, CHO, Membrane. Particulars: cho. Note: in other assays of this panel Not Active means under 50% inhibition at 10 µM.
The target in assay [2] is Vascular endothelial growth factor receptor 1 (Homo sapiens, UniProt P17948). The assay is classed as cell-based. Particulars: huvec. Note: in other assays of this panel Not Active means under 50% inhibition at 10 µM.
Vascular endothelial growth factor receptor 1, sequence (P17948 whole entry): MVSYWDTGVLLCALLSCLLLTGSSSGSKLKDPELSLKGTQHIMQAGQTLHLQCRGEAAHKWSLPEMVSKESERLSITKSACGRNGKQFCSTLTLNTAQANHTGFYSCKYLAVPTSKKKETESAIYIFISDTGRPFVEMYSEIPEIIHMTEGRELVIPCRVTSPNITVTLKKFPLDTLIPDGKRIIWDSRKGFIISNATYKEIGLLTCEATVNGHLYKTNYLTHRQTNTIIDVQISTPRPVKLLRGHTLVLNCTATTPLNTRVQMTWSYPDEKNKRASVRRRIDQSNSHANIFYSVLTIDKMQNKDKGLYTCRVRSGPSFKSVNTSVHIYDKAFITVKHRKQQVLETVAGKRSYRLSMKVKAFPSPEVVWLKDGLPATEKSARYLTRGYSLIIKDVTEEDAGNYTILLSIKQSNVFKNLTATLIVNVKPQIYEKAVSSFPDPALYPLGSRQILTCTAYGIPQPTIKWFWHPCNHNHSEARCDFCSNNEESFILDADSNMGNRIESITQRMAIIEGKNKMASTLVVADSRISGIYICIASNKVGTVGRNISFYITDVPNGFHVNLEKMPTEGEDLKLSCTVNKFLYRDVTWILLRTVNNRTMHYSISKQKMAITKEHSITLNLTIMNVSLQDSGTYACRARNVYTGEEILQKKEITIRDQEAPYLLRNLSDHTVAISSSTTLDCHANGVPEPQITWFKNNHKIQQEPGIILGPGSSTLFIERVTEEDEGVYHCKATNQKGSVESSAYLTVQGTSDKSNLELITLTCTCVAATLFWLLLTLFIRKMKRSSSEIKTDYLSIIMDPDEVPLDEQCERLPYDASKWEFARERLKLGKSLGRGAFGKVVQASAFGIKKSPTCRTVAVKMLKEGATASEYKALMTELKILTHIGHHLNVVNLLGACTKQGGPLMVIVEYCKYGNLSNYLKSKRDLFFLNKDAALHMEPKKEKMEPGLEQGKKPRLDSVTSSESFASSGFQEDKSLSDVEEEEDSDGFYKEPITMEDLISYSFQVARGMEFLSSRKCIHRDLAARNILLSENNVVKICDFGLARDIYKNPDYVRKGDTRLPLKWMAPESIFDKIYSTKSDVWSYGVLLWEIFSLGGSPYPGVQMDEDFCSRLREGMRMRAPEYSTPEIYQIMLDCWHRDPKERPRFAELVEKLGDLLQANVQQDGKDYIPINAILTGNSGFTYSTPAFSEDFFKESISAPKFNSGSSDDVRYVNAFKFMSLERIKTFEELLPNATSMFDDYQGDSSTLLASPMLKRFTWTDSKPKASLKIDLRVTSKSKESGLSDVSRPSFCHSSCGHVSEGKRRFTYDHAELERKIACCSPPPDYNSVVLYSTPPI
A further assay addresses D(1A) dopamine receptor (Homo sapiens, UniProt P21728). Description: DRUGMATRIX: Dopamine D1 radioligand binding (ligand: [3H] SCH-23390). The assay is classed as cell membranes, CHO, Membrane. The conditions noted are these: Not Active = under 50% inhibition at 10 µM; for IC50: cho; for pIC50: read-out: IC50; for pKi: read-out: Ki.
Assay [3] addresses Delta-type opioid receptor (Homo sapiens, UniProt P41143). The assay is classed as cell membranes, HEK293, Membrane. Particulars: hek293.
Assay [4] concerns the target cGMP-specific 3',5'-cyclic phosphodiesterase (Homo sapiens, UniProt O76074). Description: DRUGMATRIX: Phosphodiesterase PDE5 enzyme inhibition (substrate: [3H]cGMP + cGMP). The assay is classed as tissue-based, Platelet. Particulars: platelet; Not Active = under 50% inhibition at 10 µM.

Molecules are shown by their SMILES. pIC50, pKi: −log10 of the molar value.

Substance-P receptor, sequence (P25103 whole entry): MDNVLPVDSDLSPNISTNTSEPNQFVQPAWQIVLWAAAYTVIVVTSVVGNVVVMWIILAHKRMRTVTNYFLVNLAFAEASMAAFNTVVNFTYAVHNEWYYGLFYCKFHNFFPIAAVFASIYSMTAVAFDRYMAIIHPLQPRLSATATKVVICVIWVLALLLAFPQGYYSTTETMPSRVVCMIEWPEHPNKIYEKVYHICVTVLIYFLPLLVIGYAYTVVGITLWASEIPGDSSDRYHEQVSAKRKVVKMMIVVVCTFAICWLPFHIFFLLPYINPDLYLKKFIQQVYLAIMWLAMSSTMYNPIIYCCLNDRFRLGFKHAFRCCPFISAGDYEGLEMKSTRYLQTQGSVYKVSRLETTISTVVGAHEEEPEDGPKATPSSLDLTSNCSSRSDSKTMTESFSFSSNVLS
Delta-type opioid receptor, sequence (P41143 whole entry): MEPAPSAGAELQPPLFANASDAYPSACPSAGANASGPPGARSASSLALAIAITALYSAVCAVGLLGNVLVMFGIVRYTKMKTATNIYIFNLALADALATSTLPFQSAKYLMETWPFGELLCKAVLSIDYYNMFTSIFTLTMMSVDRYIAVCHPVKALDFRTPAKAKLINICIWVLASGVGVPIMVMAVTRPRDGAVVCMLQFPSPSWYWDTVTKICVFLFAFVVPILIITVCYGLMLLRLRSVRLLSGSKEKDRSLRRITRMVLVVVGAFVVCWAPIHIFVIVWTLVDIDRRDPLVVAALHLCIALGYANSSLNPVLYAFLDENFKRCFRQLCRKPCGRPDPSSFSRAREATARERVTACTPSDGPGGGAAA
D(1A) dopamine receptor, sequence (P21728 whole entry): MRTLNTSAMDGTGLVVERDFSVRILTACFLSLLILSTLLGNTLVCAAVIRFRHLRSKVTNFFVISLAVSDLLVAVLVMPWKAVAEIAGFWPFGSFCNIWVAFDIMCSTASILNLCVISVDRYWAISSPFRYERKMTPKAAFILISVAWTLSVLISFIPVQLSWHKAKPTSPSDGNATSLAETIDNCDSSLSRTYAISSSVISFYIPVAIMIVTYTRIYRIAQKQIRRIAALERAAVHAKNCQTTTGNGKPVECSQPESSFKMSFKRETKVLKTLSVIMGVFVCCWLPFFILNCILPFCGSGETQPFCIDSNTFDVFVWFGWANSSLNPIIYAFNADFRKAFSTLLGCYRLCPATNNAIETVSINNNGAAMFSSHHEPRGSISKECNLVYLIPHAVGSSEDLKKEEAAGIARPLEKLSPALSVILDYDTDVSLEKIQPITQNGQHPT

Consider `CC(C)NCC(O)c1ccccc1Cl` (stereo not given) [CLORPRENALINE], for which the IC50 entry (in assay [1]; on Substance-P receptor; in assay [2]; on D(1A) dopamine receptor; in assay [3]; in assay [4]) was “Not Active” in each case.
As for `CN1CCN(C(c2ccccc2)c2ccccc2)CC1` [CYCLIZINE], in assay [1], the pIC50 was 5.60. Besides, in assay [1], the pKi was 5.86. Besides, the IC50 result (at Substance-P receptor; in assay [2]; at D(1A) dopamine receptor; in assay [3]; in assay [4]) was “Not Active” throughout.
Turning to `CN1C[C@@H]2C[C@H]1CN2c1cc2c(cc1F)c(=O)c(C(=O)O)cn2C1CC1` [DANOFLOXACIN], the IC50 result (in assay [1]; against Substance-P receptor; in assay [2]; at D(1A) dopamine receptor; in assay [3]; in assay [4]) was “Not Active” in each case.
On to `COc1cccc2c1C(=O)c1c(O)c3c(c(O)c1C2=O)C[C@@](O)(C(C)=O)C[C@@H]3O[C@H]1C[C@H](N)[C@H](O)[C@H](C)O1` [DAUNORUBICIN], for which the IC50 entry (in assay [1]; at Substance-P receptor; in assay [2]; at D(1A) dopamine receptor; in assay [3]; in assay [4]) was “Not Active” throughout.
On to `O=C(O)c1cc(-c2ccc(F)cc2F)ccc1O` [DIFLUNISAL], for which the IC50 entry (in assay [1]; on Substance-P receptor; in assay [2]; on D(1A) dopamine receptor; in assay [3]; in assay [4]) was “Not Active” throughout.
With `C[S+](C)[O-]` [DIMETHYL SULFOXIDE], the IC50 entry (in assay [1]; against Substance-P receptor; in assay [2]; on D(1A) dopamine receptor; in assay [3]; in assay [4]) was “Not Active” each time.
For `CC1=NN(c2ccccc2)C(=O)C1` [EDARAVONE], the IC50 result (in assay [1]; on Substance-P receptor; in assay [2]; at D(1A) dopamine receptor; in assay [3]; in assay [4]) was “Not Active” each time.
Turning to `CC(C)C[C@H]1C(=O)N2CCC[C@H]2[C@]2(O)O[C@](NC(=O)[C@@H]3C=C4c5cccc6[nH]cc(c56)C[C@H]4N(C)C3)(C(C)C)C(=O)N12` [ERGOCRYPTINE], the values for the pIC50 (in assay [1]; at D(1A) dopamine receptor) were 7.85 and 6.39, respectively. Moreover, the pKi in assay [1] is 8.10; at D(1A) dopamine receptor it was 6.69. Moreover, the IC50 entry (against Substance-P receptor; in assay [2]; in assay [3]; in assay [4]) was “Not Active” in each case.
On to `C[C@]12CC[C@@H]3c4ccc(O)cc4CC[C@H]3[C@@H]1C[C@@H](O)[C@@H]2O` [ESTRIOL], for which the IC50 entry (in assay [1]; against Substance-P receptor; in assay [2]; at D(1A) dopamine receptor; in assay [3]; in assay [4]) was “Not Active” each time.
For the compound `C#C[C@]1(O)CC[C@H]2[C@@H]3CCC4=CC(=O)CC[C@]4(C)[C@H]3CC[C@@]21C` [ETHISTERONE], the IC50 result (in assay [1]; against Substance-P receptor; in assay [2]; at D(1A) dopamine receptor; in assay [3]; in assay [4]) was “Not Active” throughout.
As to `CC(O)(P(=O)(O)O)P(=O)(O)O` [ETIDRONIC ACID], the IC50 result (in assay [1]; on Substance-P receptor; in assay [2]; at D(1A) dopamine receptor; in assay [3]; in assay [4]) was “Not Active” in each case.
In the case of `CC(C)(C(=O)O)c1ccc(C(O)CCCN2CCC(C(O)(c3ccccc3)c3ccccc3)CC2)cc1` (stereo not given) [FEXOFENADINE], the IC50 result (in assay [1]; at Substance-P receptor; in assay [2]; on D(1A) dopamine receptor; in assay [3]; in assay [4]) was “Not Active” each time.
On to `CN1CCN(c2c(F)cc3c(=O)c(C(=O)O)cn(CCF)c3c2F)CC1` [FLEROXACIN], for which the IC50 entry (in assay [1]; on Substance-P receptor; in assay [2]; at D(1A) dopamine receptor; in assay [3]; in assay [4]) was “Not Active” throughout.
Take `O=c1[nH]c(=O)n([C@H]2C[C@H](O)[C@@H](CO)O2)cc1F` [FLOXURIDINE]: the IC50 result (in assay [1]; on Substance-P receptor; in assay [2]; at D(1A) dopamine receptor; in assay [3]; in assay [4]) was “Not Active” each time.
Turning to `COC(=O)Nc1nc2cc(C(=O)c3ccc(F)cc3)ccc2[nH]1` [FLUBENDAZOLE], the IC50 entry (in assay [1]; on Substance-P receptor; in assay [2]; at D(1A) dopamine receptor; in assay [3]; in assay [4]) was “Not Active” each time.
In the case of `CC(=O)OCC(=O)[C@@]1(O)CC[C@H]2[C@@H]3CCC4=CC(=O)CC[C@]4(C)[C@@]3(F)[C@@H](O)C[C@@]21C` [FLUDROCORTISONE ACETATE], the IC50 result (in assay [1]; against Substance-P receptor; in assay [2]; on D(1A) dopamine receptor; in assay [3]; in assay [4]) was “Not Active” in each case.
For the compound `CCOC(=O)c1ncn2c1CN(C)C(=O)c1cc(F)ccc1-2` [FLUMAZENIL], the IC50 entry (in assay [1]; on Substance-P receptor; in assay [2]; on D(1A) dopamine receptor; in assay [3]; in assay [4]) was “Not Active” throughout.
With `CC(=O)OCC(=O)[C@@]12OC(C)(C)O[C@@H]1C[C@H]1[C@@H]3C[C@H](F)C4=CC(=O)C=C[C@]4(C)[C@@]3(F)[C@@H](O)C[C@@]12C` [FLUOCINONIDE], the IC50 result (in assay [1]; against Substance-P receptor; in assay [2]; at D(1A) dopamine receptor; in assay [3]; in assay [4]) was “Not Active” each time.
For the compound `O=C(O)P(=O)(O)O` [FOSCARNET], the IC50 entry (in assay [1]; at Substance-P receptor; in assay [2]; at D(1A) dopamine receptor; in assay [3]; in assay [4]) was “Not Active” in each case.
Turning to `Cc1ccc(C)c(OCCCC(C)(C)C(=O)O)c1` [GEMFIBROZIL], the IC50 result (in assay [1]; at Substance-P receptor; in assay [2]; at D(1A) dopamine receptor; in assay [3]; in assay [4]) was “Not Active” in each case.
`O=c1c(-c2ccc(O)cc2)coc2cc(O)cc(O)c12` [GENISTEIN]: the IC50 result (in assay [1]; at Substance-P receptor; in assay [2]; at D(1A) dopamine receptor; in assay [3]; in assay [4]) was “Not Active” in each case.
Take `CCC1=C(C)CN(C(=O)NCCc2ccc(S(=O)(=O)NC(=O)N[C@H]3CC[C@H](C)CC3)cc2)C1=O` [GLIMEPIRIDE]: the IC50 result (in assay [1]; on Substance-P receptor; in assay [2]; on D(1A) dopamine receptor; in assay [3]; in assay [4]) was “Not Active” throughout.
In the case of `Nc1cc(-c2ccncc2)c[nH]c1=O` [INAMRINONE], the IC50 entry (in assay [1]; at Substance-P receptor; in assay [2]; at D(1A) dopamine receptor; in assay [3]; in assay [4]) was “Not Active” in each case.
On to `CCCCC1=NC2(CCCC2)C(=O)N1Cc1ccc(-c2ccccc2-c2nnn[nH]2)cc1` [IRBESARTAN], for which the IC50 result (in assay [1]; at Substance-P receptor; in assay [2]; at D(1A) dopamine receptor; in assay [3]; in assay [4]) was “Not Active” each time.
For the compound `CN1CCC(=C2c3ccccc3CC(=O)c3sccc32)CC1` [KETOTIFEN], the IC50 result (in assay [1]; against Substance-P receptor; in assay [2]; in assay [3]; in assay [4]) was “Not Active” throughout. For the same compound, at D(1A) dopamine receptor, the pIC50 was 6.06. Besides, the pKi on D(1A) dopamine receptor is 6.36.
Turning to `N[C@@H](Cn1ccc(=O)c(O)c1)C(=O)O` [L-MIMOSINE], the IC50 entry (in assay [1]; against Substance-P receptor; in assay [2]; at D(1A) dopamine receptor; in assay [3]; in assay [4]) was “Not Active” each time.
